Source: US8858995B2, “Methods and compositions for controlled delivery of phytochemical agents” (priority 2008, dated 2014)
Several values for one entry are separate records, joined by “and”; a condition that tells them apart may be missing. Equal entries are not always repeated.

Key:
[1] = In vivo release of curcumin from PCL-121K:PEG-8K implants (residual content); parameters: species or system ACI rats
Source text: (§1) The in vivo cumulative release was studied in female Augustus Copenhagen Irish (ACI) rats following an approved protocol from an Institutional Animal Care and Use Committee (IACUC). […] All the animals were provided food and water ad libitum. Sham and curcumin implants were subcutaneously grafted at the back of the rats and were monitored for their diet intake and body weight. Animals were euthanized at different time intervals by asphyxiation to collect blood, liver, brain, local tissues and implants. All the tissues were snap frozen in liquid nitrogen and stored at −80° C. until further analysis.
Initial and residual curcumin content in the implants was also analyzed to determine the cumulative drug release. Implants recovered from animals were dissolved in 5 ml dichloromethane. […] The solution was then diluted suitably (400-fold) with ethanol.
where T1, T2, T3, . . . Tn are different time intervals.

[2] = Effect of phytochemical agent load on in vitro release; assay type: physicochemical; settings: curcumin 2, 5, 20% w/w, GTPs 1, 2.5, 5, 10% w/w
Method: The medium was replaced daily and the amount of curcumin released from each composition per day was measured spectrophotometrically against a standard curve and expressed as μg/day. A similar experiment was also performed to examine the effect of incorporating various amounts of GTPs into a biocompatible polymeric matrix on the in vitro release of the agents.

[3] = test system: CYP3A4; experiment: CYP3A4 activity in hepatic microsomes; assay type: in vivo, ACI rats
Method: (§2) To evaluate the xenobiotic-metabolizing enzymes, liver samples from the animals (approximately 100 mg) were homogenized in 0.25 M sucrose buffer (pH 7.4) at 3000 rpm with Polytron. The homogenate was centrifuged at 3000 g for 20 min at 4° C. to separate the nuclear content, and the supernatant was then collected and again centrifuged at 11,000 g for 20 min at 4° C. to separate the mitochondria. The post-mitochondrial supernatant was then transferred to ultracentrifuge tubes and finally centrifuged at 100,000 g for 1 h at 4° C. to separate the microsomes. The pellet was suspended in 1 ml sucrose buffer, aliquoted and stored at −80° C. until use.

[4] = test system: GSTM; experiment: GSTM levels in hepatic microsomes (Western blotting); assay type: in vivo, ACI rats; settings: implant and dietary routes
Method: as §2
Microsomal proteins were subsequently quantified using a bicinchoninic acid (BCA) method and a BCA™ Protein Assay kit (Thermo Scientific, Rockford, Ill.) and were resolved by sodium dodecyl sulfatepolyacrylamide gel electrophoresis (SDS-PAGE) on a 10% gel. Protein bands were then transferred to polyvinylidene diflouride (PVDF) membrane, which was incubated with 5% non-fat dried milk in Tris-buffered-saline for 1 h at room temperature (25° C.) to block the non-specific binding sites. […] The bands were detected by enhanced chemiluminescence using Pierce® ECL Western-Blotting Substrate (Thermo Scientific, Rockford, Ill.) and quantified using VersaDoc Imaging System (BioRad Laboratories, Hercules, Calif.).

[5] = Safety and biocompatibility of curcumin implants; assay type: in vivo; settings: curcumin doses administered by the implants; at least 3 months
Source text: As such, the further study was designed in continuation to above-described experiments (i) to analyze the in vivo release from these implants, (ii) to compare the tissue distribution of curcumin delivered via these implants with curcumin delivered via diet, and finally (iii) to compare the efficacy of curcumin delivered via both routes.

[6] = Plasma, liver and brain curcumin levels, implants versus diet (HPLC-fluorescence); assay type: in vivo, ACI rats; settings: for plasma curcumin level: curcumin diet
Source text: as §1
Plasma pooled from all the animals (1.5 ml) was mixed with […] of 0.5 M sodium acetate to reduce the pH to 5. Plasma was then extracted three times with 3 ml ethyl acetate. Ethyl acetate extracts were pooled and dried under vacuum. The dried residue was reconstituted in 100 μl of acetonitrile, and one-half of the solution was analyzed by HPLC. Similarly, liver or brain tissue (approximately 500 mg) from each animal was homogenized in 3 ml PBS (pH 7.4) containing 200 μl sodium acetate (0.5 M). The homogenate was then extracted twice with two volumes of ethyl acetate. After evaporation of ethyl acetate under vacuum, the residue was reconstituted in 1 ml acetonitrile. The solution was filtered through 0.45 μm glass-microfiber filter and evaporated again under vacuum. The residue was finally reconstituted in 100 μl acetonitrile, and one-half of it was analyzed by HPLC using a Shimadzu liquid chromatography system equipped with LC-10ADVP pump, RF-10AXL fluorescence detector and a Shimadzu C18 column of 5 μm particles (250×4.6 mm). The three curcuminoids were separated by using acetonitrile and 1% citric acid (adjusted to pH 2.5) at a flow rate of 1 ml/min with a gradient elution in which acetonitrile concentration was increased from 0% to 30% in first 5 min, followed by an increase to 45% in next 5-20 min. Acetonitrile was then maintained at this ratio till 36 min. Curcuminoids were detected using 410 and 500 nm as excitation and emission maxima, respectively, in the fluorescence detector.

[7] = In vitro release from coated (and extruded) polymeric implants; assay type: physicochemical; settings: 37° C., no serum
Method: To formulate the “coated” polymeric implants, blank P-80 implants (1.4 mm dia) were then prepared by dissolving P-80:F68 (9:1) in dichloromethane, followed by evaporation of the solvent in a Petri dish under hood and extrusion of the molten polymer through a silastic tubing mold, similar to the methodologies described herein above. […] For coating, one end of the blank implant (2.5-3.5 cm) was inserted into a silastic tube plug (6 mm long, 1.4 mm dia) while the other end of the plug was attached with a pipet tip. Coatings were then added by dipping the blank implant into the solution with intermittent drying with cool air using a commercial hair dryer and placing them under hood. […] The assembly was placed under hood overnight to remove the residual DCM, implants were excised in 1 or 2 cm lengths and stored in amber vials under argon at -20° C. until used. The rate of in vitro release for the implants was subsequently measured. […] The vials were placed in a water bath (Julabo S W 23, Seelback, Germany) at 37° C. with constant agitation at 110 rpm. The medium was changed every 24 h.

[8] = female, ACI (Augustus Copenhagen Irish), rat, plasma, oral, 1000 ppm in diet

COc1cc(/C=C/C(=O)CC(=O)/C=C/c2ccc(O)c(OC)c2)ccc1O [curcumin]
in vivo burst release on day 1 ([1]; 2-cm implant, 40 mg, s.c.): approximately 1800 μg
curcumin released after 1 day of implantation ([1]; from weight loss studies): 1.8 mg
curcumin delivered by both the implants combined ([1]; over 90 days, versus around 900 mg by diet): 38 mg
cumulative in vivo release after 1 month ([1]; rat, in vivo): approximately 30%
in vivo drug release after 3 months ([1]; rat, in vivo): approximately 130 μg/day
in vivo drug release over a period of 1 month ([1]; rat, in vivo): 300 to 350 µg/day
in vivo release on day 4 ([1]; rat, in vivo): approximately 380 μg
amount released per day and total amount released versus amount incorporated [2]: varied proportionally
CYP3A4 activity ([3]; curcumin diet, 12 days): reduced to basal levels
CYP3A4 activity compared to untreated animals ([3]; curcumin diet, after 4 days): significant higher
CYP3A4 activity ([3]; curcumin diet, day 1): slightly higher activity
increase in CYP3A4 activity compared with sham implants ([3]; curcumin implants): became significant only after 25 days
CYP3A4 activity ([3]; curcumin implants, after 3 months): remained consistently upregualated
GSTM levels [4]: not found to get modulated
liver and kidney function [5]: did not induce any biochemical changes in liver and kidney function
liver curcumin level ([6]; both routes (implants, diet), day 1): 25 to 30 ng
liver curcumin level ([6]; both routes, after 12 days): 10 to 15 ng
plasma curcumin level ([6]; 25 and 90 days): undetectable
plasma curcumin level ([6]; day 1): not observed
brain curcumin level ([6]; dietary administration 1000 ppm, all the time points): 2 to 3 ng/g
concentration at 1 day ([6]; female, ACI (Augustus Copenhagen Irish), rat, brain, subcutaneous, 2 2-cm curcumin implants, implant route, day 1): 30 ± 7.3 ng/g
Kp ([6]; female, ACI (Augustus Copenhagen Irish), rat, liver (against plasma), other: both routes (subcutaneous implants, diet), via both routes): 10 to 20
concentration at 4 day [6, 8]: 0.3 ng/mL and 0.815 nM
concentration at 12 days [6, 8]: 0.543 nM and 0.2 ng/mL
concentration at 3 months ([6]; female, ACI (Augustus Copenhagen Irish), rat, plasma, subcutaneous, 2 2-cm curcumin implants, implants, after 3 months): ~0.2 ng/mL and 0.543 nM
concentration at 1 day ([6]; female, ACI (Augustus Copenhagen Irish), rat, plasma, subcutaneous, 2 2-cm curcumin implants, implants, day 1): 9 nM
concentration at 4 day ([6]; female, ACI (Augustus Copenhagen Irish), rat, plasma, subcutaneous, 2 2-cm curcumin implants, implants, day 4): 1.4 ng/mL and 4 nM
concentration at 1 day ([6]; female, ACI (Augustus Copenhagen Irish), rat, subcutaneous, 2 2-cm curcumin implants, implants (two 2-cm), day 1, pooled plasma): 3.3 ng/mL
brain curcumin level ([6]; implant route, after 12 days, same levels after 90 days): around 7.26±2.45 ng/g tissue
curcumin concentration in brain tissue, implant route higher than diet ([6]; rat, in vivo): approximately 3.5 fold
plasma and liver concentrations observed in the in vivo study ([6]; rat, in vivo): 78 to 95 nM
release in PBS alone [7]: essentially no release
